Here are results for 7 molecules from EP0908457B1, “3-(1,2-benzisothiazol- and isoxazol-5-Y1)-2,4(1H,3H)-pyrimidinedione or thione and 3-(1,2-benzisothiazol- and isoxazol-5-y1)-4(3H)-pyrimidinone or thione herbicidal agents” (BASF AKTIENGESELLSCHAFT, priority 1997, dated 1999).

Format in all cases: in vivo
For assay [1], the system named is Cyperus serotinus, Rottb. Description: Preemergence weed control under flooded paddy conditions, CYPSE (Flatsedge). The note with it: preemergence, rated three to four weeks after treatment.
Assay [2] concerns Monochoria vaginalis, Presl. Description: Preemergence weed control under flooded paddy conditions, MOOVA (Monochoria). The note with it: preemergence, flooded paddy, rated three to four weeks after treatment.
Another assay relates to Sagittaria pygmaea, L. Kind of assay: Preemergence weed control under flooded paddy conditions, SAGPY (Arrowhead (Pygmaea)). The settings on record: preemergence, flooded paddy, rated three to four weeks after treatment.
A further assay deals with Cyperus iria. Description: Preemergence weed control under flooded paddy conditions, CYPIR (Rice Flatsedge). The note with it: preemergence, flooded paddy, rated three to four weeks after treatment.
Assay [3] relates to Echinochloa oryzoides (Ard.) Fritsch. Kind of assay: Preemergence weed control under flooded paddy conditions, ECHORC (Watergrass (Calif.)). The note with it: preemergence, flooded paddy, rated three to four weeks after treatment.
Further: meaning of each grade not given here.

With `Cn1c(C(F)(F)F)cc(=O)n(-c2ccc3snc(COC(=O)CCl)c3c2)c1=O` [Example 368, 2,4(1H,3H)-Pyrimidinedione, 3-[3-(hydroxymethyl)-1,2-benzisothiazol-5-yl]-1-methyl-6-(trifluoromethyl)-, chloroacetate (ester)], the “herbicidal effect rating, CYPSE” value came to 0.0 in assay [1] (Rate 0.0320 kg/ha), 4.0 in assay [1] (Rate 0.0620 kg/ha), 7.0 in assay [1] (Rate 0.1250 kg/ha) and 8.0 in assay [1] (Rate 0.2500 kg/ha). In addition, the “herbicidal effect rating, MOOVA” value in assay [2] (Rate 0.0320 kg/ha), in assay [2] (Rate 0.0620 kg/ha), in assay [2] (Rate 0.1250 kg/ha) and in assay [2] (Rate 0.2500 kg/ha) was 9.0 each time. Besides, the “herbicidal effect rating, SAGPY” value in the assay on Sagittaria pygmaea, L. (Rate 0.0320 kg/ha) was 5.0; with Sagittaria pygmaea, L. (Rate 0.0620 kg/ha), 6.0; with Sagittaria pygmaea, L. (Rate 0.1250 kg/ha), 9.0; in the assay on Sagittaria pygmaea, L. (Rate 0.2500 kg/ha), 9.0. The “herbicidal effect rating, CYPIR” value in the assay on Cyperus iria (Rate 0.0320 kg/ha) is on record as 7.0; in the assay on Cyperus iria (Rate 0.0620 kg/ha), 9.0; in the assay on Cyperus iria (Rate 0.1250 kg/ha), 9.0; with Cyperus iria (Rate 0.2500 kg/ha), 9.0. Besides, the “herbicidal effect rating, ECHORC” value is recorded as 3.0 in assay [3] (Rate 0.0320 kg/ha), 7.0 in assay [3] (Rate 0.0620 kg/ha), 7.0 in assay [3] (Rate 0.1250 kg/ha) and 8.0 in assay [3] (Rate 0.2500 kg/ha).
With `CC(C)S(=O)(=O)OCc1nsc2ccc(-n3c(=O)cc(C(F)(F)F)n(C)c3=O)cc12` [Example 371, 2,4(1H,3H)-Pyrimidinedione, 3-[3-(hydroxymethyl)-1,2-benzisothiazol-5-yl]-1-methyl-6-(trifluoromethyl)-, 1-methylethanesulfonate (ester)], the “herbicidal effect rating, CYPSE” value in assay [1] (Rate 0.0320 kg/ha) stood at 0.0; in assay [1] (Rate 0.0620 kg/ha) it was 0.0; in assay [1] (Rate 0.1250 kg/ha) it was 6.0; in assay [1] (Rate 0.2500 kg/ha), 9.0. The “herbicidal effect rating, MOOVA” value in assay [2] (Rate 0.0320 kg/ha), in assay [2] (Rate 0.0620 kg/ha), in assay [2] (Rate 0.1250 kg/ha) and in assay [2] (Rate 0.2500 kg/ha) was 9.0 each time. Moreover, the “herbicidal effect rating, SAGPY” value with Sagittaria pygmaea, L. (Rate 0.0320 kg/ha) came out at 3.0; with Sagittaria pygmaea, L. (Rate 0.0620 kg/ha), 4.0; in the assay with Sagittaria pygmaea, L. (Rate 0.1250 kg/ha) it was 9.0; in the assay on Sagittaria pygmaea, L. (Rate 0.2500 kg/ha) it was 9.0. The “herbicidal effect rating, CYPIR” value is recorded as 4.0 in the assay with Cyperus iria (Rate 0.0320 kg/ha), 6.0 in the assay on Cyperus iria (Rate 0.0620 kg/ha), 9.0 in the assay with Cyperus iria (Rate 0.1250 kg/ha) and 9.0 with Cyperus iria (Rate 0.2500 kg/ha). Further, the “herbicidal effect rating, ECHORC” value in assay [3] (Rate 0.0320 kg/ha) stood at 3.0; in assay [3] (Rate 0.0620 kg/ha), 4.0; in assay [3] (Rate 0.1250 kg/ha) it was 6.0; in assay [3] (Rate 0.2500 kg/ha), 7.0.
For `Cn1c(C(F)(F)F)cc(=O)n(-c2ccc3snc(COC(=O)Nc4ccccc4)c3c2)c1=O` [Example 375, 2,4(1H,3H)-Pyrimidinedione, 3-[3-(hydroxymethyl)-1,2-benzisothiazol-5-yl]-1-methyl-6-(trifluoromethyl)-, phenylcarbamate (ester)], the “herbicidal effect rating, CYPSE” value came to 0.0 in assay [1] (Rate 0.0320 kg/ha), 0.0 in assay [1] (Rate 0.0620 kg/ha), 4.0 in assay [1] (Rate 0.1250 kg/ha) and 7.0 in assay [1] (Rate 0.2500 kg/ha). Further, the “herbicidal effect rating, MOOVA” value in assay [2] (Rate 0.0320 kg/ha), in assay [2] (Rate 0.0620 kg/ha), in assay [2] (Rate 0.1250 kg/ha) and in assay [2] (Rate 0.2500 kg/ha) was 9.0 each time. Further, the “herbicidal effect rating, SAGPY” value amounted to 7.0 in the assay on Sagittaria pygmaea, L. (Rate 0.0320 kg/ha); 9.0 with Sagittaria pygmaea, L. (Rate 0.0620 kg/ha); 9.0 in the assay on Sagittaria pygmaea, L. (Rate 0.1250 kg/ha); 9.0 in the assay with Sagittaria pygmaea, L. (Rate 0.2500 kg/ha). For the same molecule, the “herbicidal effect rating, CYPIR” value with Cyperus iria (Rate 0.0320 kg/ha) worked out at 3.0; in the assay with Cyperus iria (Rate 0.0620 kg/ha) it was 4.0; with Cyperus iria (Rate 0.1250 kg/ha), 6.0; in the assay on Cyperus iria (Rate 0.2500 kg/ha) it was 9.0. Moreover, the “herbicidal effect rating, ECHORC” value in assay [3] (Rate 0.0320 kg/ha) is 6.0; in assay [3] (Rate 0.0620 kg/ha), 6.0; in assay [3] (Rate 0.1250 kg/ha), 9.0; in assay [3] (Rate 0.2500 kg/ha), 9.0.
Consider `CCCCS(=O)(=O)OCc1nsc2ccc(-n3c(=O)cc(C(F)(F)F)n(C)c3=O)cc12` [Example 381, 2,4(1H,3H)-Pyrimidinedione, 3-[3-(hydroxymethyl)-1,2-benzisothiazol-5-yl]-1-methyl-6-(trifluoromethyl)-, butanesulfonate (ester)], for which the “herbicidal effect rating, CYPSE” value in assay [1] (Rate 0.0320 kg/ha) was found to be 0.0; in assay [1] (Rate 0.0620 kg/ha), 4.0; in assay [1] (Rate 0.1250 kg/ha), 7.0; in assay [1] (Rate 0.2500 kg/ha), 7.0. Besides, the “herbicidal effect rating, MOOVA” value is reported as 6.0 in assay [2] (Rate 0.0320 kg/ha), 7.0 in assay [2] (Rate 0.0620 kg/ha), 8.0 in assay [2] (Rate 0.1250 kg/ha) and 8.0 in assay [2] (Rate 0.2500 kg/ha). Moreover, the “herbicidal effect rating, SAGPY” value in the assay on Sagittaria pygmaea, L. (Rate 0.0320 kg/ha) was found to be 3.0; in the assay on Sagittaria pygmaea, L. (Rate 0.0620 kg/ha), 5.0; in the assay with Sagittaria pygmaea, L. (Rate 0.1250 kg/ha) it was 6.0; with Sagittaria pygmaea, L. (Rate 0.2500 kg/ha), 7.0. For the same molecule, the “herbicidal effect rating, CYPIR” value in the assay on Cyperus iria (Rate 0.0320 kg/ha) was determined as 6.0; in the assay with Cyperus iria (Rate 0.0620 kg/ha), 7.0; in the assay on Cyperus iria (Rate 0.1250 kg/ha), 8.0; in the assay on Cyperus iria (Rate 0.2500 kg/ha), 8.0. For the same molecule, the “herbicidal effect rating, ECHORC” value in assay [3] (Rate 0.0320 kg/ha) was found to be 0.0; in assay [3] (Rate 0.0620 kg/ha) it was 3.0; in assay [3] (Rate 0.1250 kg/ha) it was 4.0; in assay [3] (Rate 0.2500 kg/ha), 6.0.
For `Cn1c(C(F)(F)F)cc(=O)n(-c2ccc3snc(COC(=O)NCc4ccccc4)c3c2)c1=O` [Example 390, 2,4(1H,3H)-Pyrimidinedione, 3-[3-(hydroxymethyl)-1,2-benzisothiazol-5-yl]-1-methyl-6-(trifluoromethyl)-, benzylcarbamate (ester)], the “herbicidal effect rating, CYPSE” value in assay [1] (Rate 0.0320 kg/ha) was determined as 2.5; in assay [1] (Rate 0.1250 kg/ha) it was 4.0; in assay [1] (Rate 0.2500 kg/ha), 9.0; in assay [1] (Rate 0.5000 kg/ha), 6.0. The “herbicidal effect rating, MOOVA” value in assay [2] (Rate 0.0320 kg/ha), in assay [2] (Rate 0.0620 kg/ha), in assay [2] (Rate 0.1250 kg/ha), in assay [2] (Rate 0.2500 kg/ha) and in assay [2] (Rate 0.5000 kg/ha) was 9.0 in each case. Further, the “herbicidal effect rating, SAGPY” value in the assay on Sagittaria pygmaea, L. (Rate 0.0320 kg/ha) is listed as 2.5; with Sagittaria pygmaea, L. (Rate 0.0620 kg/ha) it was 5.5; with Sagittaria pygmaea, L. (Rate 0.1250 kg/ha), 8.0; in the assay with Sagittaria pygmaea, L. (Rate 0.2500 kg/ha), 8.0; in the assay on Sagittaria pygmaea, L. (Rate 0.5000 kg/ha), 9.0. The “herbicidal effect rating, CYPIR” value in the assay with Cyperus iria (Rate 0.0320 kg/ha) was found to be 1.0; in the assay with Cyperus iria (Rate 0.0620 kg/ha) it was 4.0; in the assay on Cyperus iria (Rate 0.1250 kg/ha) it was 7.0; in the assay on Cyperus iria (Rate 0.2500 kg/ha), 9.0; with Cyperus iria (Rate 0.5000 kg/ha), 9.0. In addition, the “herbicidal effect rating, ECHORC” value in assay [3] (Rate 0.0320 kg/ha) is on record as 5.5; in assay [3] (Rate 0.0620 kg/ha) it was 7.0; in assay [3] (Rate 0.1250 kg/ha) it was 8.0; in assay [3] (Rate 0.2500 kg/ha), 9.0; in assay [3] (Rate 0.5000 kg/ha), 9.0.
For `Cn1c(C(F)(F)F)cc(=O)n(-c2ccc3snc(CSc4ccccc4)c3c2)c1=O` [Example 392, 2,4(1H,3H)-Pyrimidinedione, 1-methyl-3-{3-[(phenylthio)methyl]-1,2-benzisothiazol-5-yl}-6-(trifluoromethyl)-], the “herbicidal effect rating, CYPSE” value in assay [1] (Rate 0.0320 kg/ha), in assay [1] (Rate 0.0620 kg/ha), in assay [1] (Rate 0.1250 kg/ha) and in assay [1] (Rate 0.2500 kg/ha) was 0.0 throughout. In addition, the “herbicidal effect rating, MOOVA” value in assay [2] (Rate 0.0320 kg/ha) is reported as 6.0; in assay [2] (Rate 0.0620 kg/ha), 7.0; in assay [2] (Rate 0.1250 kg/ha), 7.0; in assay [2] (Rate 0.2500 kg/ha), 9.0. Further, the “herbicidal effect rating, SAGPY” value is given as 0.0 in the assay on Sagittaria pygmaea, L. (Rate 0.0320 kg/ha); 0.0 with Sagittaria pygmaea, L. (Rate 0.0620 kg/ha); 0.0 in the assay on Sagittaria pygmaea, L. (Rate 0.1250 kg/ha); 0.0 with Sagittaria pygmaea, L. (Rate 0.2500 kg/ha). Besides, the “herbicidal effect rating, CYPIR” value in the assay on Cyperus iria (Rate 0.0320 kg/ha) turned out to be 0.0; in the assay on Cyperus iria (Rate 0.0620 kg/ha), 0.0; in the assay with Cyperus iria (Rate 0.1250 kg/ha), 3.0; in the assay on Cyperus iria (Rate 0.2500 kg/ha) it was 7.0. The “herbicidal effect rating, ECHORC” value in assay [3] (Rate 0.0320 kg/ha) was 5.0; in assay [3] (Rate 0.0620 kg/ha), 7.0; in assay [3] (Rate 0.1250 kg/ha) it was 9.0; in assay [3] (Rate 0.2500 kg/ha), 9.0.
`Cn1c(C(F)(F)F)cc(=O)n(-c2ccc3snc(CS(=O)(=O)c4ccccc4)c3c2)c1=O` [Example 393, 2,4(1H,3H)-Pyrimidinedione, 1-methyl-3-{3-[(phenylsulfonyl)methyl]-1,2-benzisothiazol-5-yl}-6-(trifluoromethyl)-]: the “herbicidal effect rating, CYPSE” value in assay [1] (Rate 0.0320 kg/ha) worked out at 0.0; in assay [1] (Rate 0.0620 kg/ha) it was 0.0; in assay [1] (Rate 0.1250 kg/ha) it was 3.0; in assay [1] (Rate 0.2500 kg/ha), 6.0. For the same molecule, the “herbicidal effect rating, MOOVA” value in assay [2] (Rate 0.0320 kg/ha) is given as 7.0; in assay [2] (Rate 0.0620 kg/ha) it was 8.0; in assay [2] (Rate 0.1250 kg/ha), 8.0; in assay [2] (Rate 0.2500 kg/ha), 9.0. The “herbicidal effect rating, SAGPY” value stood at 0.0 in the assay on Sagittaria pygmaea, L. (Rate 0.0320 kg/ha); 3.0 with Sagittaria pygmaea, L. (Rate 0.1250 kg/ha); 4.0 in the assay with Sagittaria pygmaea, L. (Rate 0.2500 kg/ha). Also, the “herbicidal effect rating, CYPIR” value is on record as 0.0 with Cyperus iria (Rate 0.0320 kg/ha), 3.0 in the assay with Cyperus iria (Rate 0.0620 kg/ha), 3.0 with Cyperus iria (Rate 0.1250 kg/ha) and 6.0 in the assay on Cyperus iria (Rate 0.2500 kg/ha). The “herbicidal effect rating, ECHORC” value in assay [3] (Rate 0.0320 kg/ha) amounted to 2.0; in assay [3] (Rate 0.0620 kg/ha) it was 4.0; in assay [3] (Rate 0.1250 kg/ha), 4.0; in assay [3] (Rate 0.2500 kg/ha) it was 9.0.
